Measured values: ChEMBL document CHEMBL1909046, “DrugMatrix in vitro pharmacology data”

How the values were obtained:
[1] = DRUGMATRIX: Calcium Channel Type L, Dihydropyridine radioligand binding (ligand: [3H] Nitrendipine); format: cell membranes, Rattus norvegicus, Wistar, Cerebral cortex, Membrane; conditions: Not Active = under 50% inhibition at 10 µM
[2] = target: T1, Angiotensin-converting enzyme (Oryctolagus cuniculus, UniProt P12822); format: tissue-based, Lung;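 note: enzymatic inhibition of angiotensin-converting enzyme measured with FAPGG as the substrate; in other assays of this panel Not Active means under 50% inhibition at 10 µM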
T1 sequence (P12822 whole entry): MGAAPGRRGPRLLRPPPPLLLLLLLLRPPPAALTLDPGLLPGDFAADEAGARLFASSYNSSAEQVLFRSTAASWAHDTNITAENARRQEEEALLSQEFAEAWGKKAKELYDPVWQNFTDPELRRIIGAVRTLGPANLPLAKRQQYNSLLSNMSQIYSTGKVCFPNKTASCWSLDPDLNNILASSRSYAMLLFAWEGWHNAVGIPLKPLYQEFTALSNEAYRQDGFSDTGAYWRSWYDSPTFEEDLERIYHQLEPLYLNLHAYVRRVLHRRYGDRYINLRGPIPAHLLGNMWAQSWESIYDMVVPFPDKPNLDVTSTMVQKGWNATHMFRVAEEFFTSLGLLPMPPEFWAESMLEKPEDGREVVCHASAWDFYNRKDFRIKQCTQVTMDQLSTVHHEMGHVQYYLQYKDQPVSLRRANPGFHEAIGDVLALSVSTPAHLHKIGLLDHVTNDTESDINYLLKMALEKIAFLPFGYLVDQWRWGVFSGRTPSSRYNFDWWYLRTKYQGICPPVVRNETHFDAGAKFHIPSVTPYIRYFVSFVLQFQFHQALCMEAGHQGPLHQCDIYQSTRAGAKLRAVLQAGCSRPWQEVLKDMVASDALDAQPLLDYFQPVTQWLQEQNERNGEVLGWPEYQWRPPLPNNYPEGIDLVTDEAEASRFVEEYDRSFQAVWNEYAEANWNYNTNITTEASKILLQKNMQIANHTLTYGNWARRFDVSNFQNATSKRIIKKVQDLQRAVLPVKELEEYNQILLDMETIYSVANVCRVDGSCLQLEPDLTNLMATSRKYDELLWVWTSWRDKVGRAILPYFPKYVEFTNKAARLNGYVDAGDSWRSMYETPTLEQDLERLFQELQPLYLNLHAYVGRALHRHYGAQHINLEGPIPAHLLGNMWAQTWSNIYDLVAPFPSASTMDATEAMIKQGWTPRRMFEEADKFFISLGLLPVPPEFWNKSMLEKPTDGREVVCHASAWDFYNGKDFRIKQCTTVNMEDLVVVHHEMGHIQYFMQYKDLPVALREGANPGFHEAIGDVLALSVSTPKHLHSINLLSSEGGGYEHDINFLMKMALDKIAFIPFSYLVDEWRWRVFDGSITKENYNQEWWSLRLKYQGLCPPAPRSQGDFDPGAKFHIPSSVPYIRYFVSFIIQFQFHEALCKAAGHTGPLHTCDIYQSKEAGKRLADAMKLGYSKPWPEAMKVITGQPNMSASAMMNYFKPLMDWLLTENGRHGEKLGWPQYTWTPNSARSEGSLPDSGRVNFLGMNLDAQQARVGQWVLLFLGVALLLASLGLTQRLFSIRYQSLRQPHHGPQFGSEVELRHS

[3] = DRUGMATRIX: beta-Lactamase enzyme inhibition (substrate: Nitrocefin); set-up: species or system Bacillus cereus; conditions: Not Active = under 50% inhibition at 10 µM
[4] = target: T2, Neuropeptide Y receptor type 1 (Homo sapiens, UniProt P25929); format: cell membranes, Membrane; conditions: sk-n-mc; note: in other assays of this panel Not Active means under 50% inhibition at 10 µM
T2 sequence (P25929 whole entry): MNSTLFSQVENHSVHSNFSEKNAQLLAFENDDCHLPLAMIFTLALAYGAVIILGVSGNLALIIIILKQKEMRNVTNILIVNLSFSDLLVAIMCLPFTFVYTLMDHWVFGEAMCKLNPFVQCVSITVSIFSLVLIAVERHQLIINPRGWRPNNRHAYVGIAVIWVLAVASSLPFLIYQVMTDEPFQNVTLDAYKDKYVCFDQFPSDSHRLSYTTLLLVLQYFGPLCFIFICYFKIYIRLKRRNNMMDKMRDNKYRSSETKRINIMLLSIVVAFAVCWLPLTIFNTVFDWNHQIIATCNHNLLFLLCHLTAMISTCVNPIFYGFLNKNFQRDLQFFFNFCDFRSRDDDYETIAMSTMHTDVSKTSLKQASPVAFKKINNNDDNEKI

Thromboxane-A synthase = target: T3, Thromboxane-A synthase (Homo sapiens, UniProt P24557); assay: biochemical; format: tissue-based, Platelet; conditions: platelet;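 note: enzyme inhibition assay with PGH2 supplied as substrate; in other assays of this panel Not Active means under 50% inhibition at 10 µM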
T3 sequence (P24557 whole entry): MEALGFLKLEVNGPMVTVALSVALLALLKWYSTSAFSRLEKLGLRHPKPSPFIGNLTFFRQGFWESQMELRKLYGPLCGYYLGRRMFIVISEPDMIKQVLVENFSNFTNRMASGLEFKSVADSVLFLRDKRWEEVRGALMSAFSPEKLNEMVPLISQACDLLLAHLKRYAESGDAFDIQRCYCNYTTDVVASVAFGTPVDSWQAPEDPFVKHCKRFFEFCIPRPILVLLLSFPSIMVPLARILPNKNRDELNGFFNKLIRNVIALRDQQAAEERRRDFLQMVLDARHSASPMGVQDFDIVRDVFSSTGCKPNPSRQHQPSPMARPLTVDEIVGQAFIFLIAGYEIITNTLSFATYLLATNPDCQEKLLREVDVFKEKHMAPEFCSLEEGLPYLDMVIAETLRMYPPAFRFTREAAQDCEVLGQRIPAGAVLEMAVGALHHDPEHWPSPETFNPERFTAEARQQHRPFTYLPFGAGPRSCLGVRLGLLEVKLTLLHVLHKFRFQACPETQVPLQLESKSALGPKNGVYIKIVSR

[5] = target: T4, 5-hydroxytryptamine receptor 2C (Homo sapiens, UniProt P28335); assay: DRUGMATRIX: Serotonin (5-Hydroxytryptamine) 5-HT2C radioligand binding (ligand: [3H] Mesulergine); format: cell membranes, CHO-K1, Membrane; conditions: cho-k1; Not Active = under 50% inhibition at 10 µM
T4 sequence (P28335 whole entry): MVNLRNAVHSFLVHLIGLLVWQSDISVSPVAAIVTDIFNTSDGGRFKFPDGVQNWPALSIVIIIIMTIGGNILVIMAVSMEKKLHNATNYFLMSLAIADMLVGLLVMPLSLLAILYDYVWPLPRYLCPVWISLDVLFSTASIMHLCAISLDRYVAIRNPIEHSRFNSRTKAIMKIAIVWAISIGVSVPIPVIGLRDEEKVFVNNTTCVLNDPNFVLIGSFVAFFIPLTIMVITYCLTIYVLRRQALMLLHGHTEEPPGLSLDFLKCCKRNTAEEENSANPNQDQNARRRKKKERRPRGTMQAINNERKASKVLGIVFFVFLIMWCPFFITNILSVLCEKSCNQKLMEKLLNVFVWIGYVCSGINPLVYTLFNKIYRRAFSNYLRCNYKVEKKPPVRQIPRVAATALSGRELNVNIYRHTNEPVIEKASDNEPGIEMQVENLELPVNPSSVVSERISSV

CCCCOc1cc(CC2CNC(=O)N2)ccc1OC (configuration not stated) [RO-201724]
Not Active: IC50 [1] | Ki [1] | IC50 [2] | IC50 [3] | Ki [3] | IC50 [4] | IC50 (Thromboxane-A synthase) | IC50 [5]

N#Cc1ccc(C(c2ccc(C#N)cc2)n2cncn2)cc1 [LETROZOLE]
Not Active: IC50 [1] | Ki [1] | IC50 [2] | IC50 [3] | Ki [3] | IC50 [4] | IC50 (Thromboxane-A synthase) | IC50 [5]

CN(C/C=C/C#CC(C)(C)C)Cc1cccc2ccccc12 [TERBINAFINE]
Not Active: IC50 [1] | Ki [1] | IC50 [2] | IC50 [3] | Ki [3] | IC50 [4] | IC50 (Thromboxane-A synthase) | IC50 [5]

O=C1Nc2ccc(Cl)cc2C(c2ccccc2Cl)=NC1O (configuration not stated) [LORAZEPAM]
Not Active: IC50 [1] | Ki [1] | IC50 [2] | IC50 [3] | Ki [3] | IC50 [4] | IC50 (Thromboxane-A synthase) | IC50 [5]
